Experimental data from the supplement of paper PMC10307832.

Assays:
Assay in all cases: relative viability (nuclei count vs DMSO), 5 days (fraction); higher = more cells survive
Carfilzomib + Olaparib = compound: CC(C)C[C@H](NC(=O)[C@H](CCc1ccccc1)NC(=O)CN1CCOCC1)C(=O)N[C@@H](Cc1ccccc1)C(=O)N[C@@H](CC(C)C)C(=O)[C@@]1(C)CO1 [Carfilzomib] + O=C(c1cc(Cc2n[nH]c(=O)c3ccccc23)ccc1F)N1CCN(C(=O)C2CC2)CC1 [Olaparib] (partner 8 µM)
In short: (§1)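 Lung cancer cell lines in 1536-well plates were dosed by pin tool the day after seeding, either with one drug alone or with a fixed anchor-drug dose plus five library-drug doses (not always all listed) in √10 steps. After 5 days, cells were fixed and their nuclei stained in one step (final 0.05% Triton X-100, 1% formaldehyde, 1 ug/ml Hoechst), then counted on 4× images. Relative viability is the nuclei count in treated wells divided by that in vehicle wells. Values are medians of duplicate plates.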

Carfilzomib + OSI-027 = compound: CC(C)C[C@H](NC(=O)[C@H](CCc1ccccc1)NC(=O)CN1CCOCC1)C(=O)N[C@@H](Cc1ccccc1)C(=O)N[C@@H](CC(C)C)C(=O)[C@@]1(C)CO1 [Carfilzomib] + COc1cccc2cc(-c3nc([C@H]4CC[C@H](C(=O)O)CC4)n4ncnc(N)c34)[nH]c12 [OSI-027] (partner 0.5 µM)
In short: as §1

Olaparib + Pictilisib = compound: O=C(c1cc(Cc2n[nH]c(=O)c3ccccc23)ccc1F)N1CCN(C(=O)C2CC2)CC1 [Olaparib] + CS(=O)(=O)N1CCN(Cc2cc3nc(-c4cccc5[nH]ncc45)nc(N4CCOCC4)c3s2)CC1 [Pictilisib] (partner 1 µM)
In short: as §1

Crizotinib + Vorinostat = compound: C[C@@H](Oc1cc(-c2cnn(C3CCNCC3)c2)cnc1N)c1c(Cl)ccc(F)c1Cl [Crizotinib] + O=C(CCCCCCC(=O)Nc1ccccc1)NO [Vorinostat] (partner 1 µM)
In short: as §1

Cell Line | relative viability (Carfilzomib + Olaparib; first compound 0.001 µM) | relative viability (Carfilzomib + Olaparib; first compound 0.003162 µM) | relative viability (Carfilzomib + Olaparib; first compound 0.01 µM) | relative viability (Carfilzomib + Olaparib; first compound 0.03162 µM) | relative viability (Carfilzomib + Olaparib; first compound 0.1 µM) | relative viability (Carfilzomib + OSI-027; first compound 0.001 µM) | relative viability (Carfilzomib + OSI-027; first compound 0.003162 µM) | relative viability (Carfilzomib + OSI-027; first compound 0.01 µM) | relative viability (Carfilzomib + OSI-027; first compound 0.03162 µM) | relative viability (Carfilzomib + OSI-027; first compound 0.1 µM) | relative viability (Olaparib + Pictilisib; first compound 0.08 µM) | relative viability (Olaparib + Pictilisib; first compound 0.253 µM) | relative viability (Olaparib + Pictilisib; first compound 2.53 µM) | relative viability (Olaparib + Pictilisib; first compound 8 µM) | relative viability (Crizotinib + Vorinostat; first compound 0.01 µM) | relative viability (Crizotinib + Vorinostat; first compound 0.03162 µM) | relative viability (Crizotinib + Vorinostat; first compound 0.1 µM) | relative viability (Crizotinib + Vorinostat; first compound 1 µM) | relative viability (Crizotinib + Vorinostat; first compound 0.3162 µM)
NCI-H23 | 0.365 | 0.391 | 0.287 | 0.0921 | 0.101 | 0.592 | 0.887 | 0.716 | 0.145 | 0.144 | 0.684 | 0.365 | 0.397 | 0.292 | 0.465 | 0.648 | 0.596 | 0.737 | 
NCI-H322M | 0.748 | 0.681 | 0.771 | 0.798 | 0.439 | 0.592 | 0.624 | 0.606 | 0.462 | 0.332 | 0.507 | 0.522 | 0.521 | 0.485 |  | 0.884 | 1 | 0.972 | 0.823
NCI-H358 | 0.639 | 0.692 | 0.583 | 0.0792 | 0.0776 | 0.638 | 0.834 | 0.888 | 0.0702 | 0.0685 | 0.301 | 0.311 | 0.347 | 0.312 | 0.793 | 0.658 | 0.718 | 0.697 | 0.725
NCI-H441 | 0.749 | 0.542 | 0.288 | 0.146 | 0.15 | 0.649 | 0.588 | 0.295 | 0.153 | 0.16 | 0.676 | 0.387 | 0.552 | 0.456 | 0.799 | 0.774 | 0.63 | 0.965 | 0.768
NCI-H460 | 0.41 | 0.444 | 0.485 | 0.443 | 0.0304 | 0.647 | 0.678 | 0.697 | 0.287 | 0.022 | 0.404 | 0.319 | 0.342 | 0.27 | 0.709 | 0.69 | 0.688 | 0.722 | 0.852
NCI-H520 | 0.307 | 0.297 | 0.203 | 0.161 | 0.15 | 0.19 | 0.259 | 0.22 | 0.221 | 0.191 | 0.318 | 0.315 | 0.278 | 0.236 | 0.568 | 0.68 | 0.732 | 0.722 | 0.774
NCI-H596 | 0.691 | 0.704 | 0.727 | 0.552 | 0.186 | 0.657 | 1 | 0.684 | 0.372 | 0.149 | 0.417 | 0.381 | 0.45 | 0.394 | 0.638 | 0.681 | 0.742 | 0.748 | 0.62
NCI-H647 | 0.641 | 0.644 | 0.0662 | 0.0256 | 0.023 | 0.562 | 0.747 | 0.583 | 0.0357 | 0.0226 | 0.66 |  | 0.486 | 0.515 |  | 0.71 | 0.575 | 0.643 | 0.764
NCI-H650 | 0.363 | 0.382 | 0.414 | 0.247 | 0.112 |  | 0.612 | 0.54 | 0.439 | 0.221 | 1.03 | 0.912 | 0.661 | 0.748 | 0.528 | 0.414 | 0.396 | 0.444 | 
NCI-H661 | 0.731 | 0.806 | 0.725 | 0.684 | 0.312 | 0.698 | 0.705 | 0.722 | 0.675 | 0.394 | 0.431 | 0.399 | 0.439 | 0.386 | 0.706 | 0.777 | 0.731 | 0.775 | 0.841
NCI-H727 | 0.705 | 0.751 | 0.859 | 0.62 | 0.242 | 0.618 | 0.646 | 0.734 | 0.463 | 0.242 | 0.416 | 0.446 | 0.352 | 0.284 | 1.16 | 1.1 | 1.3 | 1.37 | 1.16
NCI-H838 | 0.79 | 0.799 | 0.785 | 0.126 | 0.109 | 0.367 | 0.45 | 0.431 | 0.388 | 0.131 | 0.452 | 0.439 | 0.519 | 0.408 | 0.715 |  | 0.728 | 0.701 | 0.687
NCI-H1355 | 0.732 | 0.777 | 0.754 | 0.62 | 0.118 | 0.411 | 0.495 | 0.493 | 0.311 | 0.163 | 0.537 | 0.397 | 0.408 | 0.444 | 0.638 | 0.629 | 0.625 | 0.613 | 0.564
NCI-H1395 |  | 0.516 | 0.428 | 0.356 | 0.303 | 0.526 | 0.734 | 0.642 | 0.5 | 0.309 | 0.78 | 0.639 | 0.575 | 0.534 | 0.602 | 0.827 | 0.794 | 0.554 | 0.53
NCI-H1437 | 0.629 | 0.666 | 0.645 | 0.419 | 0.171 | 0.876 | 0.952 | 0.841 | 0.889 | 0.241 | 0.373 | 0.395 | 0.501 | 0.381 | 0.832 | 0.832 | 0.857 | 0.849 | 0.867
NCI-H1650 | 0.811 | 0.855 | 0.723 | 0.111 | 0.137 | 0.656 | 0.496 | 0.162 | 0.142 | 0.198 | 0.866 | 0.523 | 0.572 | 0.647 | 0.471 | 0.594 | 0.527 | 0.619 | 0.68
NCI-H1651 | 0.184 | 0.188 | 0.167 | 0.101 | 0.0957 | 0.733 | 0.743 | 0.588 | 0.127 | 0.0922 | 0.62 | 0.562 | 0.599 | 0.331 | 0.572 | 0.424 | 0.582 | 0.61 | 0.398
